This note sets out measurements from EPA's ToxValDB 9.5 (doi:10.2903/j.efsa.2010.1337).

One may read the NOAEL as the highest dose or exposure tested at which no adverse effect was seen.

Test system in the first data set: not given
The following applies: subchronic; duration: 90 days.
The compound `C1CCC(SSC2CCCCC2)CC1` [Dicyclohexyl disulfide] had an NOAEL of 0.23 mg/kg-day.

Another data set has as its system Rattus norvegicus. Particulars: chronic; duration: 2 years.
Turning to `C=O` [Formaldehyde], the NOEL was 15 mg/kg-day.

Regarding `SCS` [Methanedithiol], the NOEL was found to be 15 mg/kg-day.

Still in this data set, the particulars now being: chronic; duration: 91 days.
Regarding `CCC1SSC(CC)S1` (stereo not drawn) [3,5-Diethyl-1,2,4-trithiolane], the NOEL came out at 1.9 mg/kg-day.

In turn, `CC1SSC(C)S1` (stereo not drawn) [3,5-Dimethyl-1,2,4-trithiolane] yielded an NOEL of 1.9 mg/kg-day.

The data set is the same for the next values; noted with them: short-term; duration: 28 days.
With `CC=O` [Acetaldehyde], the NOEL was 125 mg/kg-day.

The compound `CC(S)S` [Ethane-1,1-dithiol] displayed an NOEL of 125 mg/kg-day.

`C=CCSC[C@H](N)C(=O)O` [S-Allylcysteine] showed an NOEL of 250 mg/kg-day.

The same data set, now with this note: subchronic; duration: 90 days.
Consider `CC1SCCSS1` (stereo not drawn) [1,2,4-Trithiane, 3-methyl-], for which the NOEL amounted to 0.3 mg/kg-day.

`Cc1ccccc1S` [2-Methylbenzenethiol]: the NOEL was 0.51 mg/kg-day.

Consider `C=CCSSCCC` [Allyl propyl disulfide], for which the NOEL was 4.6 mg/kg-day.

The compound `CC(S)c1ccccc1` (stereo not drawn) [Benzenemethanethiol, .alpha.-methyl-] yielded an NOEL of 0.43 mg/kg-day.

As to `Cc1cccc(C)c1S` [Benzenethiol, 2,6-dimethyl-], the NOEL came to 0.43 mg/kg-day.

Regarding `COc1ccccc1S` [Benzenethiol, 2-methoxy-], the NOEL was found to be 0.51 mg/kg-day.

Compound `C=CCSSSCC=C` [Diallyl trisulfide] yielded an NOEL of 4.6 mg/kg-day.

For `CSCS` [Methylthiomethylmercaptan], the NOEL turned out to be 0.3 mg/kg-day.

Staying with this data set, now noted: subchronic; duration: 90 days; oral.
In the case of `CCC(S)SC(S)CC` (stereo not drawn) [1,1'-Sulfanediyldi(propane-1-thiol)], the NOEL came out at 0.7 mg/kg-day.

`CC(S)C(C)S` (stereo not drawn) [2,3-Butanedithiol] gave an NOEL of 0.7 mg/kg-day.
